Data taken from patent publication US4727090A, “Process for preparing and therapeutical applications of the 2,4,6-triiodophenol” (Bislak, S.A., priority 1983, dated 1988).
Where two headings read alike, the source gives them in different places.

Assays:
[1] = system: acetic acid induced pullings; experiment: Writhing syndrome test (acetic acid); type: in vivo, mice; conditions: 10 mg/kg oral; for inhibition at 10 mg/kg: Mus musculus, po, read-out: % INHIB. (pullings)
Protocol: Irritant substance: acetic acid at 0.5% injected via intraperitoneal.
Foundation of the method consists in provoking a dolorous syndrome by pulling and torsion of the stomach and the hind legs of the animals.
These pullings or stretchings are calculated during a certain time, using it as the measure of the provoked ache.
Mice of about 22 g by weight were used, animals were left under abstinence during 24 hours before carrying out the test.
Mice were previously selected as to each individual response to the dolorous stimulus provoked by an intraperitoneal injection of 0.2 ml of an acetic acid aqueous solution at the 0.5%. Valid animals for realizing the test are those which respond within a margin of 15-35 pullings in about 5 to 15 minutes after the injection. The remaining animals are not useful.
Medication is realized via oral with the help of an esophageal cannula.
White lot: Administration of 0.1 ml of CMC 1% for each 10 g of corporal weight.
2,4,6-triiodophenol lot: Administration of 10 mg/kg of the product, suspended in CMC of 1%.
Aspirin-Lysin lot (Solusprin): Administration of 500 mg/kg aspirin, dissolved at 1%.
After medication, one has to wait 20 minutes for injecting 0.2 ml acetic acid of 0.5% via intraperitoneal, calculating the number of pullings during 5 minutes. […]
The test was carried out in 9 mice in each lot.

[2] = system: sensation of pain on hot plate; experiment: Hot plate test at 56° C; type: in vivo, mice
Protocol: (A) To control analgesic activity we use mice of about 25 g by weight, in groups of ten mice, subjected to the test of the hot plate at 56° C.
Animals receive a medicamentous injection of 0.1 ml of solubilized aspirin with sodium bicarbonate, or of solubilized triiodophenol at pH 9'5.
Controls receive physiologic serum.
The time in which the animals indicate sensation of pain is measured with a chronometer.
In the hereunder table the results testing animals, 15 min. and 30 min. after the medication. Average values are taken of each group.

fat in the blood = experiment: Fat in the blood in cardiovascular patients (hypocholesterinemic action); type: in vivo; conditions: 3rd month, 30 mg/day intramuscular
Protocol: (§1) Hereunder we expose the clinical results obtained after the administration during three months of the 2,4,6-triiodophenol in 200 cardiovascular patients.
(§2) Sick persons were divided in 4 groups; (1) 50 patients with cerebral vascular insufficiency, (2) 50 patients with coronary insufficiency, (3) 50 patients with hepatic insufficiency and (4) 50 patients with peripheral vascular insufficiency of the lower extremities. All these persons received an intramuscular administration, a dosage of 30 mg/day of 2,4,6-triiodophenol, carrying out controls at the first, second and third month of all angiohemodynamic parameters, supposing a total of 600 controls (150 per each group after the three months).

vascular surface = experiment: Vascular caliber by echo-Doppler in cardiovascular patients (vasodilatory action); type: in vivo; conditions: 30 mg/day intramuscular
Source text: (§3) The technology used to show the hemodynamic changes was of the non-invasivetype, as in this way experiments can be repeated and are completely innoxious for the patient. Of all the non-invasive methods of diagnosis we selected the most reliable of actual conditions, which is the method of ultrasounds (echo and Doppler's effects). The bidimensional echocardiography in real time, combined with pulsatile Doppler and the bidimensional vascular echography combined with pulsatile Doppler hemodynamic, are actually the two most reliable non-invasive techniques for the study of the anatomic changes and macroscopic hemodynamics with regard to the cardiovascular apparatus. That's why we used for the study of the clinical effects of the 2,4,6-triiodophenol an echo-Doppler trade mark ATL (Mark V), being the transmission frequency of 3 MHz, as well as a continuous Doppler trade mark SONICAID of 4 and 8 MHz.
(§4) Patients were divided in four statistically acceptable groups (50 in each group), comparing the results obtained with this medicament before, during and after the treatment.
(§5) Methodologically there are practiced echographical cuts in real time of the heart, big vases, supra-aortic trunks, abdominal aorta, portal and caval systems and iliac and femoral arteries, obtaining fluxmetric samples Doppler in all the mentioned cardiac cavities and blood vessels to study the sense of the flow, outflow (stream) or volume of flow and the hemodynamic features of the sanguineous flow.
as §1, §2

pressure = experiment: Systemic arterial and portal pressure in cardiovascular patients (hypotensor action); type: in vivo; conditions: 30 mg/day intramuscular
Source text: as §3, §4, §5, §1, §2

Carrageenin leg oedema = Carrageenin leg oedema test; type: in vivo, white rats; conditions: for inhibition at 5 mg/kg: Rattus norvegicus, 5 mg/kg oral
Protocol: (A) The antiinflammatory action is shown in white rats, of a weight of about 200-225 g, having provoked in these animals the leg oedema by means of an injection in the sole of the foot of 0.1 ml of a 1% Carrageenin solution.
One control group of ten animals, another the same medicated with indomethacin via oral at 30 mg/kg, in suspension in a carboxymethylcellulose solution, another group of ten rats, medicated with triiodophenol in oral solution at 5 mg/kg, another group medicated with triioodophenol at 1 mg/kg, injected via intramuscular and another group medicated with triiodophenol at 0.5 mg/kg via intramuscular. All medications are administered simultaneously to the formation of Edema.
The volume of the same is measured at 0 hours, 3 hours, 4 hours, 5 hours and 6 hours with a mercury Plestimograph.

Oc1c(I)cc(I)cc1I [2,4,6-triiodophenol]
Total No. pullings ([1]; 20'): 14
Total No. pullings ([1]; 30'): 9
Total No. pullings ([1]; 100'): 9
inhibition at 10 mg/kg ([1]; 20'): 88.4%
inhibition at 10 mg/kg ([1]; 30'): 83.9%
inhibition at 10 mg/kg ([1]; 100'): 86.1%
Time to sensation of pain ([2]; 1 mg/kg injection, 15 minutes): 6,5 sec.
Time to sensation of pain ([2]; 1 mg/kg injection, 30 minutes): 6,7 sec.
Time to sensation of pain ([2]; 10 mg/kg injection, 15 minutes): 11,7 sec.
Time to sensation of pain ([2]; 10 mg/kg injection, 30 minutes): 11,8 sec.
Cholesterol, variation (fat in the blood): -15%
Triglycerides, variation (fat in the blood): -12%
Vascular caliber, abdominal aorta, variation (Δ %) (vascular surface; 1st month): +6%
Vascular caliber, caval iliac artery, variation (Δ %) (vascular surface; 1st month): +8%
Vascular caliber, portal carotid aorta, variation (Δ %) (vascular surface; 1st month): +11%
Vascular caliber, portal system, variation (Δ %) (vascular surface; 1st month): -13%
Vascular caliber, postcaval system, variation (Δ %) (vascular surface; 1st month): -9%
Vascular caliber, thoracic aorta, variation (Δ %) (vascular surface; 1st month): +3%
Vascular caliber, abdominal aorta, variation (Δ %) (vascular surface; 2nd month): +11%
Vascular caliber, caval iliac artery, variation (Δ %) (vascular surface; 2nd month): +12%
Vascular caliber, portal carotid aorta, variation (Δ %) (vascular surface; 2nd month): +12%
Vascular caliber, portal system, variation (Δ %) (vascular surface; 2nd month): -23%
Vascular caliber, postcaval system, variation (Δ %) (vascular surface; 2nd month): -14%
Vascular caliber, thoracic aorta, variation (Δ %) (vascular surface; 2nd month): +7%
Vascular caliber, abdominal aorta, variation (Δ %) (vascular surface; 3rd month): +13%
Vascular caliber, caval iliac artery, variation (Δ %) (vascular surface; 3rd month): +15%
Vascular caliber, portal carotid aorta, variation (Δ %) (vascular surface; 3rd month): +13%
Vascular caliber, portal system, variation (Δ %) (vascular surface; 3rd month): -26%
Vascular caliber, postcaval system, variation (Δ %) (vascular surface; 3rd month): -13%
Vascular caliber, thoracic aorta, variation (Δ %) (vascular surface; 3rd month): +9%
Portal pressure, variation (Δ %) (pressure; 1st month): -8%
Systemic arterial pressure, variation (Δ %) (pressure; 1st month): -3%
Portal pressure, variation (Δ %) (pressure; 2nd month): -11%
Systemic arterial pressure, variation (Δ %) (pressure; 2nd month): -5%
Portal pressure, variation (Δ %) (pressure; 3rd month): -13%
Systemic arterial pressure, variation (Δ %) (pressure; 3rd month): -6%
% inhibition (oedema) (Carrageenin leg oedema; 0,5 mg/kg inj. (intramuscular), 3 hours): 20%
% inhibition (oedema) (Carrageenin leg oedema; 0,5 mg/kg inj. (intramuscular), 4 hours): 42%
% inhibition (oedema) (Carrageenin leg oedema; 0,5 mg/kg inj. (intramuscular), 5 hours): 49%
% inhibition (oedema) (Carrageenin leg oedema; 0,5 mg/kg inj. (intramuscular), 6 hours): 60%
% inhibition (oedema) (Carrageenin leg oedema; 1 mg/kg inj. (intramuscular), 4 hours): 66%
% inhibition (oedema) (Carrageenin leg oedema; 1 mg/kg inj. (intramuscular), 5 hours): 75%
% inhibition (oedema) (Carrageenin leg oedema; 1 mg/kg inj. (intramuscular), 6 hours): 82%
inhibition at 5 mg/kg (Carrageenin leg oedema; 3 hours): 43%
inhibition at 5 mg/kg (Carrageenin leg oedema; 4 hours): 50%
inhibition at 5 mg/kg (Carrageenin leg oedema; 5 hours): 57%
inhibition at 5 mg/kg (Carrageenin leg oedema; 6 hours): 65%
